Assay [1] has as its target T1, BIR3 domain of human XIAP (Homo sapiens, UniProt P98170).
T1 construct: BIR3 domain of human XIAP (residues 252-350) fused to a His-tag; His-tag (cleaved yes); made in house; host or cells: Escherichia coli
In words: XIAP in vitro competitive displacement binding assay (fluorescence polarization). The settings on record: for IC50: plain number = IC50, average where more than one data point, read-out: Xiap IC50 or PI μM (IC50); for inhibition at 0.04 µM: 1 h, PI at 0.04 μM, read-out: Xiap IC50 or PI μM (PI).

Assay [2] concerns EVSA-T (human breast carcinoma). In words: Anti-proliferative activity, Alamar Blue assay, EVSA-T. Format: cell-based.
[3] abbreviates: EVSA-T cells, 72 hours, Alamar Blue, hydrochloride, read-out: EVSA-T prolif.
Setting [4] is: Homo sapiens, EVSA-T, read-out: EC50 in EVSA-T cell line assays.
Setting [5] is: Homo sapiens, EVSA-T, 72 h, EVSA-T cells, 72 hours, Alamar Blue, read-out: EVSA-T prolif.

pEC50: −log10 of the molar value. Counter-ions that a name gives are not always drawn. Like-named read-outs stand apart in the source and are kept apart here.

T1 sequence (P98170 252-350): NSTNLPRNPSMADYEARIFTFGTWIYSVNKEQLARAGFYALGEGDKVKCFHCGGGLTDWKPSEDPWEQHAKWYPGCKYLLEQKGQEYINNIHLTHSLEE

Turning to `C[C@@H]1CN(CC(=O)N2CC(C)(C)c3ncc(Cc4ccc(F)cc4)cc32)[C@@H](CN2CCCCC2C(F)(F)F)CN1` (single isomer, unassigned) [Example 24, 1-{6-[(4-Fluorophenyl)methyl]-3,3-dimethyl-1H,2H,3H-pyrrolo[3,2-b]pyridin-1-yl}-2-[(2R,5R)-5-methyl-2-{[2-([R or S]trifluoromethyl)piperidin-1-yl]methyl}piperazin-1-yl]ethan-1-one hydrochloride], the IC50 in assay [1] was determined as 0.13 µM. The pEC50 in assay [2] (setting [3]) is 7.89; in assay [2] (setting [4]), above 6.00.

As for `C[C@@H]1CN(CC(=O)N2CC(C)(C)c3ncc(Cc4ccc(F)cc4)cc32)[C@@H](CN2CCOCC2C(F)(F)F)CN1` (single isomer, unassigned) [Example 25, 1-{6-[(4-Fluorophenyl)methyl]-3,3-dimethyl-1H,2H,3H-pyrrolo[3,2-b]pyridin-1-yl}-2-[(2R,5R)-5-methyl-2-{[3-([R or S]trifluoromethyl)morpholin-4-yl]methyl}piperazin-1-yl]ethan-1-one hydrochloride], the IC50 in assay [1] was determined as 0.12 µM. For the same compound, the pEC50 in assay [2] (setting [3]) is 8.92; in assay [2] (setting [4]), above 6.00.

In the case of `C[C@@H]1CN(CC(=O)N2CC(C)(C)c3cnc(Cc4ccc(F)cc4F)cc32)[C@@H](CN2CCOC[C@]2(C)CO)CN1` (single isomer, unassigned) [Example 66, dihydrochloride], the inhibition at 0.04 µM in assay [1] was determined as 78%. In addition, the pEC50 was 9.10 in assay [2] (setting [5]) and above 6.00 in assay [2] (setting [4]).

As to `C[C@@H]1CN(CC(=O)N2CC(C)(C)c3ncc(C(O)c4c(F)cccc4F)cc32)[C@@H](CN2[C@H](C)COC[C@H]2C)CN1` (single isomer, unassigned) [Example 117, 1-{(R or S)-6-[(2,6-Difluorophenyl)(hydroxy)meth-yl]-3,3-dimethyl-1H,2H,3H-pyrrolo[3,2-]pyridin-1-yl}-2-[(2R,5R)-2-{[(3R,5R)-3,5-dimethylmorpholin-4-yl]methyl}-5-methylpiperazin-1-yl]ethan-1-one dihydrochloride], in assay [1], the inhibition at 0.04 µM was determined as 41%.

In the case of `C[C@@H]1CN(CC(=O)N2CC(C)(C)c3ncc(Cc4ccc(F)cc4)cc32)[C@@H](CN2Cc3cccnc3C2)CN1` [Example 21, 1-{6-[(4-Fluorophenyl)methyl]-3,3-dimethyl-1H,2H,3H-pyrrolo[3,2-b]pyridin-1-yl}-2-[(2R,5R)-5-methyl-2-{5H,6H,7H-pyrrolo[3,4-b]pyridin-6-ylmethyl}piperazin-1-yl]ethan-1-one dihydrochloride], the pEC50 in assay [2] (setting [5]) was 8.43; in assay [2] (setting [4]), above 6.00.

Regarding `C[C@@H]1CN(CC(=O)N2CC(C)(C)c3ncc(Cc4ccc(F)cc4)cc32)[C@@H](CN2CCC(O)CC2)CN1` [Example 23, 1-{6-[(4-Fluorophenyl)methyl]-3,3-dimethyl-1H,2H,3H-pyrrolo[3,2-b]pyridin-1-yl}-2-[(2R,5R)-2-[(4-hydroxypiperidin-1-yl)methyl]-5-methylpiperazin-1-yl]ethan-1-one dihydrochloride], the pEC50 was 8.42 in assay [2] (setting [5]) and above 6.00 in assay [2] (setting [4]).

As for `C[C@@H]1CN(CC(=O)N2CC(C)(C)c3ncc(Cc4ccc(F)cc4)cc32)[C@@H](CN2CCOCC(F)(F)C2)CN1` [Example 28, 2-[(2R,5R)-2-[(6,6-Difluoro-1,4-oxazepan-4-yl)methyl]-5-methylpiperazin-1-yl]-1-{6-[(4-fluorophenyl)methyl]-3,3-dimethyl-1H,2H,3H-pyrrolo[3,2-b]pyridin-1-yl}ethan-1-one dihydrochloride], the pEC50 is 8.51 in assay [2] (setting [5]) and above 6.00 in assay [2] (setting [4]).

With `C[C@@H]1CN(CC(=O)N2CC(C)(C)c3ncc(Cc4ccc(F)cc4)cc32)[C@@H](CN2CCC[C@H]2CF)CN1` [Example 30, 2-[(2R,5R)-2-{[(2S)-2-(Fluoromethyl)pyrrolidin-1-yl]methyl}-5-methylpiperazin-1-yl]-1-{6-[(4-fluorophenyl)methyl]-3,3-dimethyl-1H,2H,3H-pyrrolo[3,2-b]pyridin-1-yl}ethan-1-one dihydrochloride], the pEC50 in assay [2] (setting [5]) is 8.92; in assay [2] (setting [4]), above 6.00.

Consider `C[C@@H]1CN(CC(=O)N2CC(C)(C)c3ncc(Cc4ccc(F)cc4)cc32)[C@@H](CN2CCOC(C#N)C2)CN1` (stereo partly drawn) [Example 31, 4-{[(2R,5R)-1-(2-{6-[(4-Fluorophenyl)methyl]-3,3-dimethyl-1H,2H,3H-pyrrolo[3,2-b]pyridin-1-yl}-2-oxoethyl)-5-methylpiperazin-2-yl]methyl}morpholine-2-carbonitrile], for which the pEC50 is 8.96 in assay [2] (setting [5]) and above 6.00 in assay [2] (setting [4]).

For `C[C@@H]1CN(CC(=O)N2CC(C)(C)c3ncc(Cc4ccc(F)cc4)cc32)[C@@H](CN2CCC[C@H]2C(F)(F)F)CN1` [Example 36, 1-{6-[(4-Fluorophenyl)methyl]-3,3-dimethyl-1H,2H,3H-pyrrolo[3,2-b]pyridin-1-yl}-2-[(2R,5R)-5-methyl-2-{[(2S)-2-(trifluoromethyl)pyrrolidin-1-yl]methyl}piperazin-1-yl]ethan-1-one], the pEC50 in assay [2] (setting [5]) was 7.92; in assay [2] (setting [4]), above 6.00.

`C[C@@H]1CN(CC(=O)N2CC(C)(C)c3ncc(Cc4ccc(F)cc4)cc32)[C@@H](CN2[C@H](CO)COC[C@H]2C)CN1` [Example 37, 1-{6-[(4-Fluorophenyl)methyl]-3,3-dimethyl-1H,2H,3H-pyrrolo[3,2-b]pyridin-1-yl}-2-[(2R,5R)-2-{[(3R,5R)-3-(hydroxymethyl)-5-methylmorpholin-4-yl]methyl}-5-methylpiperazin-1-yl]ethan-1-one, dihydrochloride]: the pEC50 in assay [2] (setting [5]) was 8.55; in assay [2] (setting [4]), above 6.00.

For the compound `C[C@@H]1CN(CC(=O)N2CC(C)(C)c3ncc(Cc4ccc(F)cc4)cc32)[C@@H](CN2CCOCC2(C)CO)CN1` (stereo partly drawn) [Example 47, 1-{6-[(4-Fluorophenyl)methyl]-3,3-dimethyl-1H,2H,3H-pyrrolo[3,2-b]pyridin-1-yl}-2-[(2R,5R)-2-{[3-(hydroxymethyl)-3-methylmorpholin-4-yl]methyl}-5-methylpiperazin-1-yl]ethan-1-one, dihydrochloride], the results for the pEC50 in assay [2] (setting [5]) and in assay [2] (setting [4]) were 9.05 and above 6.00, respectively.

For `C[C@@H]1CN(CC(=O)N2CC(C)(C)c3cnc(Cc4ccc(F)cc4F)cc32)[C@@H](CN2[C@H](C)COC[C@H]2C)CN1` [Example 63, 1-{6-[(2,4-Difluorophenyl)methyl]-3,3-dimethyl-1H,2H,3H-pyrrolo[3,2-c]pyridin-1-yl}-2-[(2R,5R)-2-{[(3R,5R)-3,5-dimethylmorpholin-4-yl]methyl}-5-methylpiperazin-1-yl]ethan-1-one, dihydrochloride], the pEC50 was 9.32 in assay [2] (setting [5]) and above 6.00 in assay [2] (setting [4]).

On to `C[C@@H]1CN(CC(=O)N2CC(C)(C)c3ncc(Cc4ccc(F)cc4)cc32)[C@@H](CN2CCn3cnnc3C2)CN1` [Example 71, 1-{6-[(4-Fluorophenyl)methyl]-3,3-dimethyl-1H,2H,3H-pyrrolo[3,2-b]pyridin-1-yl}-2-[(2R,5R)-5-methyl-2-{5H, 6H, 7H, 8H-[1,2,4]triazolo[4,3-a]pyrazin-7-ylmethyl}piperazin-1-yl]ethan-1-one dihydrochloride], for which the results for the pEC50 in assay [2] (setting [5]) and in assay [2] (setting [4]) were 7.01 and above 6.00, respectively.

Turning to `CCCC(O)c1cc2c(cn1)C(C)(C)CN2C(=O)CN1C[C@@H](C)NC[C@@H]1CN1[C@H](C)COC[C@H]1C` (stereo partly drawn) [Example 90, 2-[(2R,5R)-2-{[(3R,5R)-3,5-Dimethylmorpholin-4-yl]methyl}-5-methylpiperazin-1-yl]-1-[6-(1-hydroxybutyl)-3,3-dimethyl-1H,2H,3H-pyrrolo[3,2-c]pyridin-1-yl]ethan-1-one dihydrochloride], the results for the pEC50 in assay [2] (setting [5]) and in assay [2] (setting [4]) were 7.54 and above 6.00, respectively.

Regarding `CCCC(F)(F)c1cc2c(cn1)C(C)(C)CN2C(=O)CN1C[C@@H](C)NC[C@@H]1CN1[C@H](C)CN(C(C)=O)C[C@@H]1C` [Example 93, 2-[(2R,5R)-2-{[(2R,6S)-4-Acetyl-2,6-dimethylpiperazin-1-yl]methyl}-5-methylpiperazin-1-yl]-1-[6-(1,1-difluorobutyl)-3,3-dimethyl-1H,2H,3H-pyrrolo[3,2-c]pyridin-1-yl]ethan-1-one dihydrochloride], the pEC50 in assay [2] (setting [5]) was 8.15; in assay [2] (setting [4]) it was above 6.00.

Turning to `C[C@@H]1CN(CC(=O)N2CC(C)(C)c3ncc(Cc4ccc(F)cc4)cc32)[C@@H](CN2C[C@H](CO)OC[C@H]2C)CN1` [Example 119, 1-{6-[(4-Fluorophenyl)methyl]-3,3-dimethyl-1H,2H,3H-pyrrolo[3,2-b]pyridin-1-yl}-2-[(2R,5R)-2-{[(2R,5R)-2-(hydroxymethyl)-5-methylmorpholin-4-yl]methyl}-5-methylpiperazin-1-yl]ethan-1-one, dihydrochloride], the results for the pEC50 in assay [2] (setting [5]) and in assay [2] (setting [4]) were 9.49 and above 6.00, respectively.

On to `C[C@@H]1CN(CC(=O)N2CC(C)(C)c3ncc(Cc4ccc(F)cc4F)cc32)[C@@H](CN2C[C@H](CO)OC[C@H]2C)CN1` [Example 120, 1-{6-[(2,4-Difluorophenyl)methyl]-3,3-dimethyl-1H,2H,3H-pyrrolo[3,2-b]pyridin-1-yl}-2-[(2R,5R)-2-{[(2R,5R)-2-(hydroxymethyl)-5-methylmorpholin-4-yl]methyl}-5-methylpiperazin-1-yl]ethan-1-one, dihydrochloride], for which the pEC50 was 9.52 in assay [2] (setting [5]) and above 6.00 in assay [2] (setting [4]).

On to `C[C@@H]1CN(CC(=O)N2CC(C)(C)c3c2cc(Cc2ccc(F)cc2)c[n+]3[O-])[C@@H](CN2[C@H](C)COC[C@H]2C)CN1` [Example 121, 1-{2-[(2R,5R)-2-{[(3R,5R)-3,5-Dimethylmorpholin-4-yl]methyl}-5-methylpiperazin-1-yl]acetyl}-6-[(4-fluorophenyl)methyl]-3,3-dimethyl-1H,2H,3H-pyrrolo[3,2-b]-pyridin-4-oxide dihydrochloride], for which the pEC50 is 9.43 in assay [2] (setting [5]) and above 6.00 in assay [2] (setting [4]).

The values are drawn from patent publication US9980973B2, “Bicyclic heterocycle compounds and their uses in therapy” (ASTEX THERAPEUTICS LIMITED, priority 2012, dated 2018).
